# According to EP4806891A1 (Kangbaida (Sichuan) Biotechnology Co., Ltd., priority 2023, dated 2025):
# Biological target: T1, HEK-Blue-hTLR7 cells (Homo sapiens, UniProt Q9NYK1)
# T1 construct: expressed in transfected cells; host or cells: HEK-Blue-hTLR7 cells (HEK293-derived reporter line)
# T1 sequence (Q9NYK1 27-1049): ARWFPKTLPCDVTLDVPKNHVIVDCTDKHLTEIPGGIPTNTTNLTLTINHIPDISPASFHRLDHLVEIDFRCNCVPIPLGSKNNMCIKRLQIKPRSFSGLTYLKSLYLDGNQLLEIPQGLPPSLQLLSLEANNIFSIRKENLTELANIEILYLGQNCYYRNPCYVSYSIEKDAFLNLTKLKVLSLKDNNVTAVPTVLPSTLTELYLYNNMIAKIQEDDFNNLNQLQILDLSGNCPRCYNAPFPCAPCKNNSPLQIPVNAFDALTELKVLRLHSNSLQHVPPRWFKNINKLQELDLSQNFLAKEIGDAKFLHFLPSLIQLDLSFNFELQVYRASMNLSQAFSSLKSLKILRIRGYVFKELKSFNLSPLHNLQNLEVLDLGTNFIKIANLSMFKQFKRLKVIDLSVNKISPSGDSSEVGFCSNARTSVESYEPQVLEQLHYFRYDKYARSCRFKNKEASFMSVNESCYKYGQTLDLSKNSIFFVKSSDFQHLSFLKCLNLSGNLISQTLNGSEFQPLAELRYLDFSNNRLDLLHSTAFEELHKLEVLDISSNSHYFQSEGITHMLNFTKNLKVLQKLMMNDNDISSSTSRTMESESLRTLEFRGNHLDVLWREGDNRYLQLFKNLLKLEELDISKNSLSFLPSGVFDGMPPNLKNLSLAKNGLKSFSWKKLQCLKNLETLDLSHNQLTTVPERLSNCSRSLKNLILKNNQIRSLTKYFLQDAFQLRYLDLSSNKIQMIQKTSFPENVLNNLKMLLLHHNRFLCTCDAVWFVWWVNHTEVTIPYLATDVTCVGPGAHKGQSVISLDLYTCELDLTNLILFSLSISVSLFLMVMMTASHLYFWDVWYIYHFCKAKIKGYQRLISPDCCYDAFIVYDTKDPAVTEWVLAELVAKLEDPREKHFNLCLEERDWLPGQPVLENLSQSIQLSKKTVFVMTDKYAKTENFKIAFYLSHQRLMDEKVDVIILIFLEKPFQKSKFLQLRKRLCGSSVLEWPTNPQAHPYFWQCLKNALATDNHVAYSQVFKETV
# Assay: HEK-Blue-hTLR7 cell inhibition assay
# Type: cell-based
# Details: R848 0.8 µM, 16 h, OD 620 nm, read-out: TLR7 IC50
# Summary of the method: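 Cells were pre-incubated 4 h, then co-treated 16 h at 37 °C with compound (10 doses, 0.5–10000 nM final) plus R848 (0.8 µM for TLR7, 3 µM for TLR8) or ODN2006 (1 µM, TLR9). Reporter OD620 gave inhibition relative to DMSO blank and agonist-only controls; IC50 came from curve fitting.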
row,IC50,SMILES
1,< 100 nM,"FC(F)(F)c1ccc(N2C[C@]3(c4nnc(C5(F)CCNCC5)o4)C[C@]3(C(F)(F)F)C2)c2cccnc12 [Compound 3, 2-(4-fluoropiperidin-4-yl)-5-((1S,5R)-5-(trifluoromethyl)-3-(8-(trifluoromethyl)quinolin-5-yl)-3-azabicyclo[3.1.0]hexan-1-yl)-1,3,4-oxadiazole]"
2,< 100 nM,"CN1CCC(c2nnc([C@]34CN(c5ccc(C#N)n6ncc(Cl)c56)C[C@@]3(C(F)(F)F)C4)o2)CC1 [Compound 84, 3-chloro-4-((1S,5R)-1-(5-(1-methylpiperidin-4-yl)-1,3,4-oxadiazol-2-yl)-5-(trifluoromethyl)-3-azabicyclo[3.1.0]hexan-3-yl)pyrazolo[1,5-a]pyridine-7-carbonitrile]"
3,< 100 nM,"FC(F)(F)c1ccc(N2C[C@]3(c4nnc(C5CCN(CC6CC6)CC5)o4)C[C@]3(C(F)(F)F)C2)c2cccnc12 [Compound 76, 2-(1-(cyclopropylmethyl)piperidin-4-yl)-5-((1S,5R)-5-(trifluoromethyl)-3-(8-(trifluoromethyl)quinolin-5-yl)-3-azabicyclo[3.1.0]hexan-1-yl)-1,3,4-oxadiazole]"
4,< 1000 nM,"CN1CCC(c2nnc([C@]34CN(c5c(Br)cc(C#N)n6nccc56)C[C@@]3(C(F)(F)F)C4)o2)CC1 [Compound 86, 5-bromo-4-((1S,5R)-1-(5-(1-methylpiperidin-4-yl)-1,3,4-oxadiazol-2-yl)-5-(trifluoromethyl)-3-azabicyclo[3.1.0]hexan-3-yl)pyrazolo[1,5-a]pyridine-7-carbonitrile]"
5,< 100 nM,"CN1CCC(Oc2nnc([C@]34CN(c5ccc(C#N)n6ncc(F)c56)C[C@@]3(C(F)(F)F)C4)o2)CC1 [Compound 31, 3-fluoro-4-((1S,5R)-1-(5-((1-methylpiperidin-4-yl)oxy)-1,3,4-oxadiazol-2-yl)-5-(trifluoromethyl)-3-azabicyclo[3.1.0]hexan-3-yl)pyrazolo[1,5-a]pyridine-7-carbonitrile]"
6,< 100 nM,"CN1CC(Cc2nnc([C@]34CN(c5ccc(C#N)c6ncccc56)C[C@@]3(C(F)(F)F)C4)o2)C1 [Compound 36, 5-((1S,5R)-1-(5-((1-methylazetidin-3-yl)methyl)-1,3,4-oxadiazol-2-yl)-5-(trifluoromethyl)-3-azabicyclo[3.1.0]hexan-3-yl)quinoline-8-carbonitrile]"
7,< 100 nM,"CN(C)C12CCC(c3nnc([C@]45CN(c6ccc(C#N)c7ncccc67)C[C@@]4(C(F)(F)F)C5)o3)(CC1)CC2 [Compound 53, 5-((1S,5R)-1-(5-(4-(dimethylamino)bicyclo[2.2.2]octan-1-yl)-1,3,4-oxadiazol-2-yl)-5-(trifluoromethyl)-3-azabicyclo[3.1.0]hexan-3-yl)quinoline-8-carbonitrile]"
8,< 1000 nM,"N#Cc1ccc(N2C[C@]3(c4nnc(C#CCN5CCOCC5)o4)C[C@]3(C(F)(F)F)C2)c2cccnc12 [Compound 24, 5-((1S,5R)-1-(5-(3-morpholinoprop-1-yn-1-yl)-1,3,4-oxadiazol-2-yl)-5-(trifluoromethyl)-3-azabicyclo[3.1.0]hexan-3-yl)quinoline-8-carbonitrile]"
9,< 100 nM,"CN1CCC(Cc2nnc([C@]34CN(c5ccc(C#N)c6ncccc56)C[C@@]3(C(F)(F)F)C4)o2)CC1 [Compound 37, 5-((1S,5R)-1-(5-((1-methylpiperidin-4-yl)methyl)-1,3,4-oxadiazol-2-yl)-5-(trifluoromethyl)-3-azabicyclo[3.1.0]hexan-3-yl)quinoline-8-carbonitrile]"
10,< 100 nM,"NC(=O)CN1CCC(c2nnc([C@]34CN(c5ccc(C(F)(F)F)c6ncccc56)C[C@@]3(C(F)(F)F)C4)o2)CC1 [Compound 77, 2-(4-(5-((1S,5R)-5-(trifluoromethyl)-3-(8-(trifluoromethyl)quinolin-5-yl)-3-azabicyclo[3.1.0]hexan-1-yl)-1,3,4-oxadiazol-2-yl)piperidin-1-yl)acetamide]"
11,< 100 nM,"N#Cc1ccc(N2C[C@]3(c4nnc(CN5CCCC5)o4)C[C@]3(C(F)(F)F)C2)c2cccnc12 [Compound 41, 5-((1S,5R)-1-(5-(Pyrrolidin-1-ylmethyl)-1,3,4-oxadiazol-2-yl)-5-(trifluoromethyl)-3-azabicyclo[3.1.0]hexan-3-yl)quinoline-8-carbonitrile]"
12,< 1000 nM,"CN1CCC(Oc2nnc([C@]34CN(c5ccc(OC(F)(F)F)c6ncccc56)C[C@@]3(C(F)(F)F)C4)o2)CC1 [Compound 93, 2-((1-methylpiperidin-4-yl)oxy)-5-((1S,5R)-5-(trifluoromethyl)-3-(8-(trifluoromethoxy)quinolin-5-yl)-3-azabicyclo[3.1.0]hexan-1-yl)-1,3,4-oxadiazole]"
13,< 100 nM,"CN1CC2CC1CC2c1nnc([C@]23CN(c4ccc(C#N)c5ncccc45)C[C@@]2(C(F)(F)F)C3)o1 (stereo partly drawn) [Compound 14, 5-((1S,5R)-1-(5-(2-methyl-2-azabicyclo[2.2.1]heptan-5-yl)-1,3,4-oxadiazol-2-yl)-5-(trifluoromethyl)-3-azabicyclo[3.1.0]hexan-3-yl)quinoline-8-carbonitrile]"
14,< 100 nM,"CC1(C)CC(Cc2nnc([C@]34CN(c5ccc(C#N)c6ncccc56)C[C@@]3(C(F)(F)F)C4)o2)CC(C)(C)N1 [Compound 26, 5-((1S,5R)-1-(5-((2,2,6,6-tetramethylpiperidin-4-yl)methyl)-1,3,4-oxadiazol-2-yl)-5-(trifluoromethyl)-3-azabicyclo[3.1.0]hexan-3-yl)quinoline-8-carbonitrile]"
15,< 100 nM,"CN1CCC(c2nnc([C@]34CN(c5ccc(C#N)n6nccc56)C[C@@]3(C(F)(F)F)C4)o2)CC1 [Compound 59, 4-((1S,5R)-1-(5-(1-methylpiperidin-4-yl)-1,3,4-oxadiazol-2-yl)-5-(trifluoromethyl)-3-azabicyclo[3.1.0]hexan-3-yl)pyrazolo[1,5-a]pyridine-7-carbonitrile]"
16,< 1000 nM,"N#Cc1ccc(N2C[C@]3(c4nnc(CN5CCOCC5)o4)C[C@]3(C(F)(F)F)C2)c2cccnc12 [Compound 40, 5-((1S,5R)-1-(5-(morpholinomethyl)-1,3,4-oxadiazol-2-yl)-5-(trifluoromethyl)-3-azabicyclo[3.1.0]hexan-3-yl)quinoline-8-carbonitrile]"
17,< 100 nM,"CN1CCC(c2nnc([C@]34CN(c5ccc(C#N)c6ncccc56)C[C@@]3(C(F)(F)F)C4)o2)C(F)C1 (stereo partly drawn) [Compound 50, 5-((1S,5R)-1-(5-(3-fluoro-1-methylpiperidin-4-yl)-1,3,4-oxadiazol-2-yl)-5-(trifluoromethyl)-3-azabicyclo[3.1.0]hexan-3-yl)quinoline-8-carbonitrile]"

row,SMILES,IC50
1,"N#Cc1ccc(N2C[C@]3(c4nnc(C5(F)CNC5)o4)C[C@]3(C(F)(F)F)C2)c2cccnc12 [Compound 32, 5-((1S,5R)-1-(5-(3-Fluoroazetidin-3-yl)-1,3,4-oxadiazol-2-yl)-5-(trifluoromethyl)-3-azabicyclo[3.1.0]hexan-3-yl)quinoline-8-carbonitrile]",< 100 nM
2,"CN(C)Cc1nnc([C@]23CN(c4ccc(C#N)c5ncccc45)C[C@@]2(C(F)(F)F)C3)o1 [Compound 42, 5-((1S,5R)-1-(5-((dimethylamino)methyl)-1,3,4-oxadiazol-2-yl)-5-(trifluoromethyl)-3-azabicyclo[3.1.0]hexan-3-yl)quinoline-8-carbonitrile]",< 100 nM
3,"CN(C)[C@H]1CC[C@H](c2nnc([C@]34CN(c5ccc(C#N)c6ncccc56)C[C@@]3(C(F)(F)F)C4)o2)CC1 [Compound 21, 5-((1S,5R)-1-(5-((1R,4S)-4-(dimethylamino)cyclohexyl)-1,3,4-oxadiazol-2-yl)-5-(trifluoromethyl)-3-azabicyclo[3.1.0]hexan-3-yl)quinoline-8-carbonitrile]",< 100 nM
4,N#Cc1ccc(N2C[C@]3(c4nnc(C5CCNCC5F)o4)C[C@]3(C(F)(F)F)C2)c2cccnc12 (stereo partly shown) [Compound 33],< 100 nM
5,"CN1[C@@H]2CC[C@H]1C[C@H](c1nnc([C@]34CN(c5ccc(C(F)(F)F)c6ncccc56)C[C@@]3(C(F)(F)F)C4)o1)C2 [Compound 79, 2-((1R,3S,5S)-8-methyl-8-azabicyclo[3.2.1]octan-3-yl)-5-((1S,5R)-5-(trifluoromethyl)-3-(8-(trifluoromethyl)quinolin-5-yl)-3-azabicyclo[3.1.0]hexan-1-yl)-1,3,4-oxadiazole]",< 100 nM
